# Experimental data taken from patent US20050032854A1, “Insulin resistance improving agents” (priority 2001, published 2005).
# System: spontaneously hypertensive rats (SHR)
# Assay: Insulin sensitivity evaluation by glucose clamp technique in spontaneously hypertensive rats (SHR)
# Format: in vivo, rat
# Conditions: for M-value (average glucose infusion rate, index of insulin sensitivity): n=10, vehicle 5.9±0.5
# Procedure: For evaluation of insulin resistance, 23-week-old spontaneously hypertensive rats (SHR) were used. Vehicle (0.5% methyl cellulose solution administration) and compound A (0.3 and 1 mg/kg/day) were orally administered for 2 weeks, after which an insulin sensitivity evaluation test by a glucose clamp technique was performed. The rats were grouped such that each parameter was leveled based on the glucose level and plasma insulin value before start of the drug administration. SHR were fasted from the evening of the day before the operation of the glucose clamp technique.
# The glucose clamp technique was performed according to the following procedures. The rats were anesthetized with pentobarbital sodium (50 mg/kg i.p.) and catheters [PR45 (trademark), NATUME SEISAKUSHO CO., LTD.] for blood collection, for intravenous injection of insulin [novolin R injection 40 (trademark), Novo Nordisk Pharma Ltd.] and for intravenous injection of glucose [Otsuka glucose injection 50% (trademark), Otsuka Pharmaceutical Co., Ltd.] were each placed in the right common carotid artery, left femoral vein and right femoral vein, respectively. The glucose level was measured using a simplified glucose meter [Advantage II (trademark), Roche Diagnostics Corporation]. Using a peristaltic pump [MINIPULS 3 (trademark), Gilson Company, Inc.], insulin was constantly infused continuously at an injection rate of 40 and 20 mU/kg/min for 5 and 3 min, respectively, to afford a high insulin state, and thereafter high insulin state was maintained at 8 mU/kg/min.. Glucose was constantly infused intravenously to maintain the range of initial value±10% of blood glucose, using a different peristaltic pump. […] Glucose was constantly infused for-90 min and an average of glucose infusion rate for the period of 40 min from 50 min to 90 min after the start of the infusion was calculated and used as an index showing the insulin sensitivity (M-value). […] For statistic analysis, Williams' test was used and significance was evaluated at a risk rate of less than 2.5%.
compound,measurement,setting,value
"CCOc1nc2cccc(C(=O)O)c2n1Cc1ccc(-c2ccccc2-c2nc(=O)o[nH]2)cc1 [compound A, 2-Ethoxy-1-[[2′-(5-oxo-2,5-dihydro-1,2,4-oxadiazol-3-yl)biphenyl-4-yl]methyl]-1H-benzimidazole-7-carboxylic acid]","M-value (average glucose infusion rate, index of insulin sensitivity)",0.3 mg/kg/day orally for 2 weeks,7.8 ± 0.5 mg/kg/min
same,"M-value (average glucose infusion rate, index of insulin sensitivity)",1 mg/kg/day orally for 2 weeks,8.6 ± 0.6 mg/kg/min
same,insulin sensitivity enhancing effect,0.3 and 1 mg/kg/day orally for 2 weeks,dose-dependent insulin sensitivity enhancing effect
